Test results as given in ChEMBL document CHEMBL1129889, “Design and synthesis of novel nonpeptide CCK-B receptor antagonists” (Bioorg Med Chem Lett, 1997).

Tests used:
[1] = target: T1, Cholecystokinin receptor type A (Rattus norvegicus, UniProt P30551); experiment: Inhibition of specific binding of [125 I] Bolton Hunter CCK-8 to Cholecystokinin type A receptor in the rat pancreas
T1 sequence (P30551 whole entry): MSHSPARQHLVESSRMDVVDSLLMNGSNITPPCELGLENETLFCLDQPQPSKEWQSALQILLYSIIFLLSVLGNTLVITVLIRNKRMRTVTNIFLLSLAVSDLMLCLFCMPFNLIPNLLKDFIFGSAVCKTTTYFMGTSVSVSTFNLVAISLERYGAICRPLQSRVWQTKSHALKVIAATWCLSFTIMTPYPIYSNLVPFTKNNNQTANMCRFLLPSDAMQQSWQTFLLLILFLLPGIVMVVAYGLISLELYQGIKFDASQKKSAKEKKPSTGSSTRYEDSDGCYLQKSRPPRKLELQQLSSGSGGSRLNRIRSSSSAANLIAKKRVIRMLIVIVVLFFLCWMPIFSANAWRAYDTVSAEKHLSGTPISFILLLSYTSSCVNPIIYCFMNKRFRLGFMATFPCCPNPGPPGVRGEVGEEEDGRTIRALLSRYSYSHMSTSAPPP

[2] = target: T2, Gastrin/cholecystokinin type B receptor (Mus musculus, UniProt P56481); experiment: Inhibition of [125 I]CCK-8 binding to Cholecystokinin type B receptor of mouse cerebral cortex; assay type: tissue-based
T2 sequence (P56481 whole entry): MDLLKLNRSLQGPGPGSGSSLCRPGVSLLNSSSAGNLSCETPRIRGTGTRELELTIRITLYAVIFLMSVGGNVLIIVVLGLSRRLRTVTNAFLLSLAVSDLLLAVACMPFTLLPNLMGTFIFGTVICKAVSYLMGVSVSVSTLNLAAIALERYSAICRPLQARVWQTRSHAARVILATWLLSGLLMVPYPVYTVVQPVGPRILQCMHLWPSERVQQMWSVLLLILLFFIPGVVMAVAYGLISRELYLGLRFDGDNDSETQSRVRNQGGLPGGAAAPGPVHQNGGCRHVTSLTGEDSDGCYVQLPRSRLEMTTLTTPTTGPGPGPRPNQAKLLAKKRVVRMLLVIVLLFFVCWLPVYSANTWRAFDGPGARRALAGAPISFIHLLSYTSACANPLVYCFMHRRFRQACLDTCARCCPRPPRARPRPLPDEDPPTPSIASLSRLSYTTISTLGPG

[3] = target: T3, Gastrin/cholecystokinin type B receptor (Mus musculus) (UniProt P56481); experiment: Binding activity
T3 sequence (whole entry): T2 sequence (P56481 whole entry)

Structure (SMILES)	IC50 [1]	IC50 [2]	Ke [3]
Cc1ccc(S(=O)(=O)NC(=O)NCc2nc3ccccc3c(=O)n2-c2cccc(OC(C)C)c2)cc1	> 1000 nM	> 1000 nM	
CC(C)Oc1cccc(-n2c(CNC(=O)Nc3ccc([N+](=O)[O-])cc3)nc3ccccc3c2=O)c1	385 nM	212 nM	
Cc1cccc(NC(=O)NCc2nc3ccccc3c(=O)n2-c2cccc(OC(C)C)c2)c1	1640 nM	879 nM	
CCOC(=O)c1cccc(NC(=O)NCc2nc3ccccc3c(=O)n2-c2cccc(OC(C)C)c2)c1	1470 nM	126 nM	230 nM
CC(C)Oc1cccc(-n2c(CNC(=O)Nc3ccc(C(F)(F)F)cc3)nc3ccccc3c2=O)c1	674 nM	691 nM	

Second part, the compound after the results:

IC50 [1]	IC50 [2]	Ke [3]	Structure (SMILES)
> 1000 nM	> 1000 nM		CC(C)Oc1cccc(-n2c(NC(=O)Nc3ccc(Br)cc3)nc3ccccc3c2=O)c1
6930 nM	8020 nM		CC(C)Oc1cccc(-n2c(CNC(=S)Nc3ccc(Br)cc3)nc3ccccc3c2=O)c1
1630 nM	585 nM		CC(C)Oc1cccc(-n2c(CCNC(=O)Nc3ccc(Br)cc3)nc3ccccc3c2=O)c1
984 nM	137 nM	1300 nM	CC(C)Oc1cccc(-n2c(CNC(=O)Nc3ccc(Br)cc3)nc3ccccc3c2=O)c1
3100 nM	652 nM		CC(C)Oc1cccc(-n2c(CNC(=O)NCc3ccc(Br)cc3)nc3ccccc3c2=O)c1
